Measurements: US20040161399A1, “Use of nonimmunosuppressive [$g(g)-hydroxy-n-methyl-l-leucine4]cyclosporin derivatives for treating hair loss” (priority 2001, published 2004)
Starred links: 1 amine or outer side, 2 acyl side, 3 side chain; linkers in the order of their positions; H or OH if unused. Non-standard residues stand in square brackets, D forms with d. Residues, ends and D or L forms follow the SMILES beside them. AlaΨ(CSNH)dAla = C[C@H](N[*:1])C(=S)N[C@H](C)C(=O)[*:2]; MeBmt = C/C=C/C[C@@H](C)[C@@H](O)[C@H](NC)C(=O)O; NMeLeu(4-OH) = CN[C@@H](CC(C)(C)O)C(=O)O; NMeL = CN[C@@H](CC(C)C)C(=O)O; NMeV = CN[C@H](C(=O)O)C(C)C; dHiv = CC(C)[C@@H](O)C(=O)O; dNMeA = CN[C@H](C)C(=O)O; Abu = CC[C@H](N)C(=O)O; Sar = CNCC(=O)O

How the values were obtained:
Female C57BL/6 mice = assay: Evaluation of hair restoring effect in mice (topical application to shaved back); assay type: in vivo; settings: for Area rate of hair regrowth (%): C57BL/6 mice, hair-removed back, 100 μl of 0.1% w/v once a day for 30 days, visual examination; for hair restoring / hair growth promoting effect (in words): qualitative statement
Protocol: Evaluation of Hair Restoring Effect in Mice
Female C57BL/6 mice of ages 6 to 7 weeks were utilized. After removing hairs on the middle of the back with an electric shaver, the mice were weighed and randomly assigned to the test groups with an even distribution of weights. […] The results were determined by visual examination, in terms of degrees of hair regrowth. With respect to respective hair-removed areas, rates of new hair growth were examined and compared.

[1] = tested on: splenocytes (responder cells from BALB/c mice, stimulator cells from C57BL/6 mice); assay: Mixed Lymphocyte Reaction (MLR) method, 3H-thymidine incorporation; assay type: cell-based; settings: qualitative statement
Protocol: Evaluation of Non-Immunosuppressive Activity In Vitro
Responder cells from BALB/c mice were mixed with an equal number of stimulator cells from C57BL/6 mice pre-treated with mitomycin. […] After 4 days of incubation, ^3H-thymidine was added to the mixtures and incubated for an additional 4 hours. Then, the amount of thymidine incorporated into the cells was measured (liquid scintillation counter), and IC50 (μg/ml) of respective cyclosporins were calculated.

Compound | Area rate of hair regrowth (%) (Female C57BL/6 mice) | hair restoring / hair growth promoting effect (in words) (Female C57BL/6 mice) | immunosuppressive activity (in words) [1]
C/C=C/C[C@@H](C)[C@@H](O)[C@H]1C(=O)N[C@@H](CC)C(=O)N(C)CC(=O)N(C)[C@@H](CC(C)(C)O)C(=O)N[C@@H](C(C)C)C(=O)N(C)[C@@H](CC(C)C)C(=O)N[C@@H](C)C(=S)N[C@H](C)C(=O)N(C)[C@@H](CC(C)C)C(=O)N(C)[C@@H](CC(C)C)C(=O)N(C)[C@@H](C(C)C)C(=O)N1C [[γ-hydroxy-N-methyl-L-leucine^4][alaninethiomide^7, ^7ψ^8 CS—NH] cyclosporin A] (cyclo([MeBmt][Abu][Sar][NMeLeu(4-OH)]V[NMeL][AlaΨ(CSNH)dAla][NMeL][NMeL][NMeV])) | 91% | – | –
C/C=C/C[C@@H](C)[C@@H](O)[C@H]1C(=O)N[C@@H](CC)C(=O)N(C)[C@H](C)C(=O)N(C)[C@@H](CC(C)(C)O)C(=O)N[C@@H](C(C)C)C(=O)N(C)[C@@H](CC(C)C)C(=O)N[C@@H](C)C(=O)N[C@H](C)C(=O)N(C)[C@@H](CC(C)C)C(=O)N(C)[C@@H](CC(C)C)C(=O)N(C)[C@@H](C(C)C)C(=O)N1C [[N-methyl-D-alanine^3][γ-hydroxy-N-methyl-L-leucine^4] cyclosporin A] (cyclo([MeBmt][Abu][dNMeA][NMeLeu(4-OH)]V[NMeL]A[dA][NMeL][NMeL][NMeV])) | 95% | has a hair restoring effect | reduced
[γ-hydroxy-N-methyl-L-leucine^4] cyclosporin A [reference compound] | – | has a hair restoring effect | no immunosuppressive activity
C/C=C/C[C@@H](C)[C@@H](O)[C@H]1C(=O)N[C@@H]([C@@H](C)O)C(=O)N(C)CC(=O)N(C)[C@@H](CC(C)(C)O)C(=O)N[C@@H](CC(C)C)C(=O)N(C)[C@@H](CC(C)C)C(=O)N[C@@H](C)C(=O)O[C@H](C(C)C)C(=O)N(C)[C@@H](CC(C)C)C(=O)N[C@@H](CC(C)C)C(=O)N(C)[C@@H](C(C)C)C(=O)N1C [[L-threonine^2][γ-hydroxy-N-methyl-L-leucine^4][L-leucine^5][D-2-hydroxyisovaleric acid^8][L-leucine^10] cyclosporin A] (cyclo([MeBmt]T[Sar][NMeLeu(4-OH)]L[NMeL]A[dHiv][NMeL]L[NMeV])) | 90% | – | –
